A value given as a limit tells only on which side of the number the result lay.

Here are results for 3 compounds from US8759392B2, “Amides as inhibitors of human secreted phospholipase A2” (The Regents of the University of California, priority 2008, dated 2014).

One assay deals with secreted PLA2. Conditions: known inhibitors of FIG. 1; cited from earlier work.
Another assay has as its target T1, human GIVA cPLA2 (Homo sapiens, UniProt P47712).
T1 sequence (P47712 1-749): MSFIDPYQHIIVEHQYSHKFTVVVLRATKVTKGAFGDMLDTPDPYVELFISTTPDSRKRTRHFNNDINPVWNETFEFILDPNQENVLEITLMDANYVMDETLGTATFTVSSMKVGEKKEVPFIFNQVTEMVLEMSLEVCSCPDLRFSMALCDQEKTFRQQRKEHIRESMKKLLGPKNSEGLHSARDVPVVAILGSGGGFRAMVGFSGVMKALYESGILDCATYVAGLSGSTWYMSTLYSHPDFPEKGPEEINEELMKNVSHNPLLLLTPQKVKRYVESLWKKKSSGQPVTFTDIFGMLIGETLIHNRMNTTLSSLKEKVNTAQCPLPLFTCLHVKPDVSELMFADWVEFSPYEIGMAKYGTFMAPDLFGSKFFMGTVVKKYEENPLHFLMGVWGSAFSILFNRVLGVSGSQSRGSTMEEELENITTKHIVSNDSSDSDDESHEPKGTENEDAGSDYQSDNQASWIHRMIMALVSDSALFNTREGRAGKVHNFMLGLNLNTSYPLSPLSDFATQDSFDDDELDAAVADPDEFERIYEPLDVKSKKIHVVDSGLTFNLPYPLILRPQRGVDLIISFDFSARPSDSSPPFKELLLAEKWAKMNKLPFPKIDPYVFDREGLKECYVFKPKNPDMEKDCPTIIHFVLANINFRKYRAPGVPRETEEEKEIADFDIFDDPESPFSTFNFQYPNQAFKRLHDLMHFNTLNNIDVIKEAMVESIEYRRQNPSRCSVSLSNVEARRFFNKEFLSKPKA
As to the kind of experiment: Mixed micelle-based assay, inhibition of GIVA cPLA2. It is filed as biochemical. How it is done:
(§1) The amides were tested for inhibition of human GIVA cPLA2, GVIA iPLA2 and GV sPLA2 using previously described mixed micelle-based assays. The resulting degrees of inhibition are presented as either percent inhibition or XI(50) values. […] The XI(50) is the mole fraction of the inhibitor in the total substrate interface required to inhibit the enzyme by 50%.

A further assay addresses T2, human GVIA iPLA2 (Homo sapiens, UniProt O60733).
T2 sequence (O60733 1-806): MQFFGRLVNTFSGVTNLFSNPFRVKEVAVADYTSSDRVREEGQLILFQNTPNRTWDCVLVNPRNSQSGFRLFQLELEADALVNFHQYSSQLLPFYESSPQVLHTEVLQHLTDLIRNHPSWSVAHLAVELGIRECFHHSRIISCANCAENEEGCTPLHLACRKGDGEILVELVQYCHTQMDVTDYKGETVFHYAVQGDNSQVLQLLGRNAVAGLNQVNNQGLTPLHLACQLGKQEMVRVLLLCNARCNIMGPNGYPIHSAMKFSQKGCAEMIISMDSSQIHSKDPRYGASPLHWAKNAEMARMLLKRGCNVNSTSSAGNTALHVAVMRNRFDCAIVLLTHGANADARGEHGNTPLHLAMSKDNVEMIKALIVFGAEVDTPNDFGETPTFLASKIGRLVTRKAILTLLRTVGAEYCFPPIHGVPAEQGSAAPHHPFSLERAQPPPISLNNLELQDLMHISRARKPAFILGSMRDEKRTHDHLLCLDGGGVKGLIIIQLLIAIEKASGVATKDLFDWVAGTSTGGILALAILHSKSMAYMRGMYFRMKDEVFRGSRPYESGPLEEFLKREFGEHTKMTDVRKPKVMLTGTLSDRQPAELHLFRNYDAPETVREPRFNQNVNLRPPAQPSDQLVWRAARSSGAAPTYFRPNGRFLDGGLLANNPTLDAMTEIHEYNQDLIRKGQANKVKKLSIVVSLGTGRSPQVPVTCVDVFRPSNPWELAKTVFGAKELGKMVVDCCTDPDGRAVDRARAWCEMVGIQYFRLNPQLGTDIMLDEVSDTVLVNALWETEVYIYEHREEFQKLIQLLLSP
Nature of the assay: Mixed micelle-based assay, inhibition of GVIA iPLA2. The format is biochemical. How it is done: as §1

In the next assay the target is T3, human GV sPLA2 (Homo sapiens, UniProt P39877).
T3 sequence (P39877 21-138): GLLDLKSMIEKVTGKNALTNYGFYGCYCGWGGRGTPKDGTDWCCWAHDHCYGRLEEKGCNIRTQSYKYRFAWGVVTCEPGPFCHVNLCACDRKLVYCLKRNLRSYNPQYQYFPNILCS
As to the kind of experiment: Mixed micelle-based assay, inhibition of GV sPLA2. It is filed as biochemical. Conditions: for Inhibition (% at 0.091 mol fraction) sPLA2 GIIA/GV*: 0.091 mole fraction of inhibitor, average and standard error, n = 3. How it is done:
FIG. 2 illustrates inhibition curve for an amide of the present disclosure in a mixed-micelle assay with human GV sPLA2. The amides were tested for inhibition of human GIVA cPLA2, GVIA iPLA2 and GV sPLA2 using previously described mixed micelle-based assays.

Another assay has as its system spinal cord injury (SCI). Nature of the assay: Spinal cord injury (SCI) in mice.
Setting [1] is: 0.091 mole fraction of inhibitor, average and standard error, n = 3.

As to `CCC[C@H](CCC(=O)O)NC(=O)CCCCCCc1ccccc1` [Compound 2], the “Inhibition of secreted PLA2 (in words)” value in the assay on secreted PLA2 was “potent inhibitor”.
Turning to `CCCC[C@H](CCC(=O)O)NC(=O)CCCCCCc1ccccc1` [Compound 9, (R)-4-(7-phenylheptanamido)octanoic acid], the “Activity on GIVA cPLA2 (in words)” value on human GIVA cPLA2 is listed as “not affecting at all”. At human GVIA iPLA2, the “Activity on GVIA iPLA2 (in words)” value was “not affecting at all”. In addition, at human GV sPLA2, the “Activity on GV sPLA2 (in words)” value was “potent and selective GV sPLA2 inhibitor”; the “Inhibition (% at 0.091 mol fraction) sPLA2 GIIA/GV*” value is on record as more than 95%. Moreover, at human GV sPLA2 (mole fraction of inhibitor in total substrate interface for 50% inhibition, non-linear regression (hyperbolic)), the “XI(50) GV sPLA2” value is recorded as 0.003±0.0004 mole fraction. Moreover, the “Myelin sparing (luxol fast blue)” value with spinal cord injury (SCI) (28 days after SCI, […]) is “significant myelin sparing”. Besides, the “Locomotor function, 9-point Basso Mouse Scale (BMS) score” value in the assay on spinal cord injury (SCI) (administration started 1 hour after SCI, vs vehicle treated mice, significant from day 5 dpi through the follow up) was “improved locomotor function”.
As for `O=C(CCCCc1ccccc1)C(F)(F)C(F)(F)F` [FKGK11, reference compound], the “Inhibition (% at 0.091 mol fraction) cPLA2 GIVA” value at human GIVA cPLA2 (setting [1]) was “N.D. (N.D. signifies compounds with less than 25% inhibition (or no detectable inhibition))”. Further, the “Inhibition (% at 0.091 mol fraction) iPLA2 GVIA” value at human GVIA iPLA2 (setting [1]) was more than 95%. At human GVIA iPLA2 (mole fraction of inhibitor in total substrate interface required to inhibit the enzyme by 50%), the “XI(50) iPLA2 GVIA” value is 0.0096 ± 0.0008 mole fraction. Moreover, the “Inhibition (% at 0.091 mol fraction) sPLA2 GIIA/GV*” value on human GV sPLA2 came to 28 ± 1%.
